Numbers after ± are expanded uncertainties.
Legend:
[1] = 101 kPa, Liquid; for viscosity: Capillary tube (Ostwald / Ubbelohde) method; for speed of sound: Pulse-echo method
[2] = xn = mol fraction of the nth substance listed; conditions: 101 kPa, Liquid; for viscosity: Capillary tube (Ostwald / Ubbelohde) method; for speed of sound: Pulse-echo method

N#CCc1ccccc1 [benzeneacetonitrile]
[1]
Conditions | mass density [kg/m3] | speed of sound [m/s] | viscosity [mPa·s]
303.15 K | 1008.8 ± 0.7 | 1519.2 ± 9.2 | 1.761 ± 0.016
308.15 K | 1004.1 ± 0.7 | 1512.9 ± 9.2 | 1.602 ± 0.015
313.15 K | 999.5 ± 0.8 | 1503.4 ± 9.1 | 1.489 ± 0.015

N#CCc1ccccc1 [benzeneacetonitrile] + CCOC(=O)CC#N
[2], x1 = 1
Conditions | mass density [kg/m3] | speed of sound [m/s] | viscosity [mPa·s]
303.15 K | 1008.8 ± 0.7 | 1519.2 ± 9.2 | 1.761 ± 0.016
308.15 K | 1004.1 ± 0.7 | 1512.9 ± 9.2 | 1.602 ± 0.015
313.15 K | 999.5 ± 0.8 | 1503.4 ± 9.1 | 1.489 ± 0.015

CCOC(C)=O [ethyl acetate]
[1]
Conditions | mass density [kg/m3] | speed of sound [m/s] | viscosity [mPa·s]
303.15 K | 888.9 ± 0.5 | 1118.5 ± 6.8 | 0.379 ± 0.01
308.15 K | 882.6 ± 0.5 | 1097.8 ± 6.6 | 0.361 ± 0.01
313.15 K | 875.9 ± 0.5 | 1081.2 ± 6.5 | 0.344 ± 0.01

N#CCc1ccccc1 [benzeneacetonitrile] + CCOC(=O)CCl
[2], x1 = 1
Conditions | mass density [kg/m3] | speed of sound [m/s] | viscosity [mPa·s]
303.15 K | 1008.8 ± 0.7 | 1519.2 ± 9.2 | 1.761 ± 0.016
308.15 K | 1004.1 ± 0.7 | 1512.9 ± 9.2 | 1.602 ± 0.015
313.15 K | 999.5 ± 0.8 | 1503.4 ± 9.1 | 1.489 ± 0.015

CCOC(C)=O [ethyl acetate] + N#CCc1ccccc1
[2], x2 = 0
Conditions | mass density [kg/m3] | speed of sound [m/s] | viscosity [mPa·s]
303.15 K | 888.9 ± 0.5 | 1118.5 ± 6.8 | 0.379 ± 0.01
308.15 K | 882.6 ± 0.5 | 1097.8 ± 6.6 | 0.361 ± 0.01
313.15 K | 875.9 ± 0.5 | 1081.2 ± 6.5 | 0.344 ± 0.01

CCOC(=O)CC#N [ethyl cyanoacetate]
[1]
Conditions | mass density [kg/m3] | speed of sound [m/s] | viscosity [mPa·s]
303.15 K | 1051.4 ± 1.4 | 1396.9 ± 8.6 | 2.186 ± 0.027
308.15 K | 1046.5 ± 1.4 | 1384.8 ± 8.6 | 1.962 ± 0.024
313.15 K | 1040.8 ± 1.5 | 1367.7 ± 8.5 | 1.77 ± 0.022

CCOC(=O)CCl [ethyl chloroethanoate]
[1]
Conditions | mass density [kg/m3] | speed of sound [m/s] | viscosity [mPa·s]
303.15 K | 1139.3 ± 0.9 | 1229.4 ± 7.5 | 0.9692 ± 0.012
308.15 K | 1132.5 ± 0.9 | 1212.4 ± 7.4 | 0.8979 ± 0.012
313.15 K | 1125.9 ± 0.9 | 1197.6 ± 7.3 | 0.8341 ± 0.012

— the NIST ThermoML archive (doi:10.1021/je900525f)
